# Species on record: Rattus norvegicus
# Test: Open TG-GATES - Regimen: Daily Repeat
# Type: toxicity, organism-based, Sprague-Dawley
# Design: regimen Daily Repeat, gender Male, age 6 weeks
# Details: in vivo, po, route gavage; for APTT / Bas / Eos / Fbg / Hb / Ht / Lym / MCH / MCHC / MCV / Mono / Neu / PT / Plat / RBC / Ret / WBC: tissue Blood; for KIDNEY_L / KIDNEY_R / KIDNEY_TOTAL: tissue Kidney; for LIVER: tissue Liver; for ALP / AST / BUN / CRE / Ca / Cl / DBIL / GLC / IP / K / LDH / Na / PL / RALB / TBIL / TC / TG / TP / gamma-GTP: tissue Plasma
# [1] = 0 mg/kg, 72 h, dose level Control, time 3 day
# [2] = 0 mg/kg, […], dose level Control, time 7 day
# [3] = 0 mg/kg, […], dose level Control, time 14 day
# [4] = 0 mg/kg, […], dose level Control, time 28 day
# [5] = 100 mg/kg, 72 h, dose level Low, time 3 day
# [6] = 100 mg/kg, […], dose level Low, time 7 day
# [7] = 100 mg/kg, […], dose level Low, time 14 day
# [8] = 100 mg/kg, […], dose level Low, time 28 day
structure (smiles),measurement,setting,value
COc1ccc2[nH]c([S+]([O-])Cc3ncc(C)c(OC)c3C)nc2c1 (configuration not stated) [OMEPRAZOLE],TERMINAL_BW,[1],237.1 g
same,APTT,[1],19.5 s
same,Bas,[1],0%
same,Eos,[1],1.2%
same,Fbg,[1],210.6 mg/dL
same,Hb,[1],13.1 g/dL
same,Ht,[1],38%
same,Lym,[1],80.8%
same,MCH,[1],21.2 pg
same,MCHC,[1],34.4%
same,MCV,[1],61.6 fL
same,Mono,[1],3%
same,Neu,[1],14.8%
same,PT,[1],12.2 s
same,Plat,[1],128.5 x10_4/uL
same,RBC,[1],616.6 x10_4/ul
same,Ret,[1],5.4%
same,WBC,[1],91.3 x10_2/uL
same,KIDNEY_L,[1],1 g
same,KIDNEY_R,[1],1.1 g
same,KIDNEY_TOTAL,[1],2.1 g
same,LIVER,[1],11.7 g
same,ALP,[1],960.2 IU/L
same,AST,[1],66.4 IU/L
same,BUN,[1],15.2 mg/dL
same,CRE,[1],0.4 mg/dL
same,Ca,[1],10.7 mg/dL
same,Cl,[1],102.2 meq/L
same,DBIL,[1],0.07 mg/dL
same,GLC,[1],233.8 mg/dL
same,IP,[1],7 mg/dL
same,K,[1],3.6 meq/L
same,LDH,[1],162.8 IU/L
same,Na,[1],141.6 meq/L
same,PL,[1],144.4 mg/dL
same,RALB,[1],3.3 g/dL
same,TBIL,[1],0.1 mg/dL
same,TC,[1],72.2 mg/dL
same,TG,[1],91.6 mg/dL
same,TP,[1],5.6 g/dL
same,gamma-GTP,[1],1.2 IU/L
same,TERMINAL_BW,[2],272.8 g
same,TERMINAL_BW,[3],317.5 g
same,TERMINAL_BW,[4],379.8 g
same,APTT,[2],20.8 s
same,Bas,[2],0%
same,Eos,[2],1%
same,Fbg,[2],226.4 mg/dL
same,Hb,[2],13.9 g/dL
same,Ht,[2],40.3%
same,Lym,[2],79.2%
same,MCH,[2],20.8 pg
same,MCHC,[2],34.5%
same,MCV,[2],60.2 fL
same,Mono,[2],3%
same,Neu,[2],16.2%
same,PT,[2],11.9 s
same,Plat,[2],124.2 x10_4/uL
same,RBC,[2],669.6 x10_4/ul
same,Ret,[2],4.8%
same,WBC,[2],124.1 x10_2/uL
same,APTT,[3],19.5 s
same,Bas,[3],0%
same,Eos,[3],1%
same,Fbg,[3],215.4 mg/dL
same,Hb,[3],14.7 g/dL
same,Ht,[3],42.6%
same,Lym,[3],79%
same,MCH,[3],20.8 pg
same,MCHC,[3],34.6%
same,MCV,[3],59.9 fL
same,Mono,[3],2.6%
same,Neu,[3],16.2%
same,PT,[3],12.3 s
same,Plat,[3],123.5 x10_4/uL
same,RBC,[3],711 x10_4/ul
same,Ret,[3],3.9%
same,WBC,[3],94.4 x10_2/uL
same,APTT,[4],20.9 s
same,Bas,[4],0%
same,Eos,[4],1%
same,Fbg,[4],228.8 mg/dL
same,Hb,[4],15.6 g/dL
same,Ht,[4],45%
same,Lym,[4],83.2%
same,MCH,[4],19.4 pg
same,MCHC,[4],34.8%
same,MCV,[4],55.9 fL
same,Mono,[4],2%
same,Neu,[4],13%
same,PT,[4],12.4 s
same,Plat,[4],110.6 x10_4/uL
same,RBC,[4],804.8 x10_4/ul
same,Ret,[4],2.2%
same,WBC,[4],102.7 x10_2/uL
same,KIDNEY_L,[2],1.2 g
same,KIDNEY_R,[2],1.2 g
same,KIDNEY_TOTAL,[2],2.3 g
same,KIDNEY_L,[3],1.3 g
same,KIDNEY_R,[3],1.3 g
same,KIDNEY_TOTAL,[3],2.5 g
same,KIDNEY_L,[4],1.3 g
same,KIDNEY_R,[4],1.3 g
same,KIDNEY_TOTAL,[4],2.6 g
same,LIVER,[2],13.4 g
same,LIVER,[3],13.5 g
same,LIVER,[4],14.7 g
same,ALP,[2],908.8 IU/L
same,AST,[2],73.8 IU/L
same,BUN,[2],16.8 mg/dL
same,CRE,[2],0.4 mg/dL
same,Ca,[2],10.8 mg/dL
same,Cl,[2],100.8 meq/L
same,DBIL,[2],0.09 mg/dL
same,GLC,[2],205.2 mg/dL
same,IP,[2],7.3 mg/dL
same,K,[2],3.9 meq/L
same,LDH,[2],225.8 IU/L
same,Na,[2],140 meq/L
same,PL,[2],168.4 mg/dL
same,RALB,[2],3.3 g/dL
same,TBIL,[2],0.1 mg/dL
same,TC,[2],78.8 mg/dL
same,TG,[2],144.6 mg/dL
same,TP,[2],5.7 g/dL
same,gamma-GTP,[2],0.8 IU/L
same,ALP,[3],734.6 IU/L
same,AST,[3],61.4 IU/L
same,BUN,[3],17.2 mg/dL
same,CRE,[3],0.5 mg/dL
same,Ca,[3],10.6 mg/dL
same,Cl,[3],102 meq/L
same,DBIL,[3],0.08 mg/dL
same,GLC,[3],222.6 mg/dL
same,IP,[3],6.5 mg/dL
same,K,[3],3.4 meq/L
same,LDH,[3],171 IU/L
same,Na,[3],139.8 meq/L
same,PL,[3],139.6 mg/dL
same,RALB,[3],3.4 g/dL
same,TBIL,[3],0.1 mg/dL
same,TC,[3],69 mg/dL
same,TG,[3],95.4 mg/dL
same,TP,[3],5.7 g/dL
same,gamma-GTP,[3],1 IU/L
same,ALP,[4],583 IU/L
same,AST,[4],64.8 IU/L
same,BUN,[4],16.6 mg/dL
same,CRE,[4],0.5 mg/dL
same,Ca,[4],10.7 mg/dL
same,Cl,[4],102.6 meq/L
same,DBIL,[4],0.078 mg/dL
same,GLC,[4],235.4 mg/dL
same,IP,[4],5.8 mg/dL
same,K,[4],3.8 meq/L
same,LDH,[4],142.8 IU/L
same,Na,[4],141.2 meq/L
same,PL,[4],137.8 mg/dL
same,RALB,[4],3.4 g/dL
same,TBIL,[4],0.1 mg/dL
same,TC,[4],67.8 mg/dL
same,TG,[4],104.8 mg/dL
same,TP,[4],6 g/dL
same,gamma-GTP,[4],0.8 IU/L
same,TERMINAL_BW,[5],240.6 g
same,APTT,[5],19 s
same,Bas,[5],0%
same,Eos,[5],1%
same,Fbg,[5],214.2 mg/dL
same,Hb,[5],13.1 g/dL
same,Ht,[5],38.3%
same,Lym,[5],77%
same,MCH,[5],21 pg
same,MCHC,[5],34.2%
same,MCV,[5],61.4 fL
same,Mono,[5],3.4%
same,Neu,[5],18.6%
same,PT,[5],12.3 s
same,Plat,[5],127.7 x10_4/uL
same,RBC,[5],624 x10_4/ul
same,Ret,[5],5.2%
same,WBC,[5],119.7 x10_2/uL
same,KIDNEY_L,[5],1.1 g
same,KIDNEY_R,[5],1.1 g
same,KIDNEY_TOTAL,[5],2.2 g
same,LIVER,[5],12.4 g
same,ALP,[5],887.8 IU/L
same,AST,[5],67.8 IU/L
same,BUN,[5],15.2 mg/dL
same,CRE,[5],0.3 mg/dL
same,Ca,[5],10.6 mg/dL
same,Cl,[5],101.8 meq/L
same,DBIL,[5],0.08 mg/dL
same,GLC,[5],220.6 mg/dL
same,IP,[5],8.8 mg/dL
same,K,[5],3.8 meq/L
same,LDH,[5],157.2 IU/L
same,Na,[5],141.4 meq/L
same,PL,[5],145 mg/dL
same,RALB,[5],3.4 g/dL
same,TBIL,[5],0.1 mg/dL
same,TC,[5],72.6 mg/dL
same,TG,[5],99.2 mg/dL
same,TP,[5],5.6 g/dL
same,gamma-GTP,[5],1.2 IU/L
same,TERMINAL_BW,[6],271.5 g
same,TERMINAL_BW,[7],323 g
same,TERMINAL_BW,[8],390.5 g
same,APTT,[6],20 s
same,Bas,[6],0%
same,Eos,[6],1%
same,Fbg,[6],221 mg/dL
same,Hb,[6],13.5 g/dL
same,Ht,[6],39.5%
same,Lym,[6],82%
same,MCH,[6],20.7 pg
same,MCHC,[6],34.2%
same,MCV,[6],60.6 fL
same,Mono,[6],3.4%
same,Neu,[6],13.2%
same,PT,[6],12.2 s
same,Plat,[6],132.7 x10_4/uL
same,RBC,[6],652 x10_4/ul
same,Ret,[6],4.7%
same,WBC,[6],114.9 x10_2/uL
same,APTT,[7],20.2 s
same,Bas,[7],0%
same,Eos,[7],0.8%
same,Fbg,[7],208.4 mg/dL
same,Hb,[7],14.2 g/dL
same,Ht,[7],40.8%
same,Lym,[7],82.8%
same,MCH,[7],20.5 pg
same,MCHC,[7],34.7%
same,MCV,[7],59.1 fL
same,Mono,[7],2.2%
same,Neu,[7],13.6%
same,PT,[7],12.1 s
same,Plat,[7],133 x10_4/uL
same,RBC,[7],691 x10_4/ul
same,Ret,[7],4.1%
same,WBC,[7],101.4 x10_2/uL
same,APTT,[8],21.2 s
same,Bas,[8],0%
same,Eos,[8],1.2%
same,Fbg,[8],210.4 mg/dL
same,Hb,[8],15.1 g/dL
same,Ht,[8],43.9%
same,Lym,[8],79.6%
same,MCH,[8],18.6 pg
same,MCHC,[8],34.3%
same,MCV,[8],54.3 fL
same,Mono,[8],2.2%
same,Neu,[8],16.6%
same,PT,[8],12.3 s
same,Plat,[8],106.5 x10_4/uL
same,RBC,[8],809.8 x10_4/ul
same,Ret,[8],2.6%
same,WBC,[8],100.5 x10_2/uL
same,KIDNEY_L,[6],1.1 g
same,KIDNEY_R,[6],1.1 g
same,KIDNEY_TOTAL,[6],2.2 g
same,KIDNEY_L,[7],1.3 g
same,KIDNEY_R,[7],1.3 g
same,KIDNEY_TOTAL,[7],2.5 g
same,KIDNEY_L,[8],1.4 g
same,KIDNEY_R,[8],1.3 g
same,KIDNEY_TOTAL,[8],2.7 g
same,LIVER,[6],13.3 g
same,LIVER,[7],14.7 g
same,LIVER,[8],16.4 g
same,ALP,[6],805 IU/L
same,AST,[6],65 IU/L
same,BUN,[6],15.6 mg/dL
same,CRE,[6],0.4 mg/dL
same,Ca,[6],10.6 mg/dL
same,Cl,[6],101.4 meq/L
same,DBIL,[6],0.066 mg/dL
same,GLC,[6],200.4 mg/dL
same,IP,[6],8.3 mg/dL
same,K,[6],4 meq/L
same,LDH,[6],229.6 IU/L
same,Na,[6],140.8 meq/L
same,PL,[6],150 mg/dL
same,RALB,[6],3.4 g/dL
same,TBIL,[6],0.1 mg/dL
same,TC,[6],77.8 mg/dL
same,TG,[6],85.2 mg/dL
same,TP,[6],5.7 g/dL
same,gamma-GTP,[6],0.8 IU/L
same,ALP,[7],771.6 IU/L
same,AST,[7],66.4 IU/L
same,BUN,[7],15.8 mg/dL
same,CRE,[7],0.5 mg/dL
same,Ca,[7],10.3 mg/dL
same,Cl,[7],101.4 meq/L
same,DBIL,[7],0.074 mg/dL
same,GLC,[7],210.8 mg/dL
same,IP,[7],7.9 mg/dL
same,K,[7],3.7 meq/L
same,LDH,[7],198.2 IU/L
same,Na,[7],140.6 meq/L
same,PL,[7],145.8 mg/dL
same,RALB,[7],3.4 g/dL
same,TBIL,[7],0.1 mg/dL
same,TC,[7],73.4 mg/dL
same,TG,[7],96.8 mg/dL
same,TP,[7],5.8 g/dL
same,gamma-GTP,[7],1 IU/L
same,ALP,[8],538.6 IU/L
same,AST,[8],59.2 IU/L
same,BUN,[8],15.4 mg/dL
same,CRE,[8],0.5 mg/dL
same,Ca,[8],10.5 mg/dL
same,Cl,[8],101.4 meq/L
same,DBIL,[8],0.088 mg/dL
same,GLC,[8],220 mg/dL
same,IP,[8],7.3 mg/dL
same,K,[8],3.6 meq/L
same,LDH,[8],174.8 IU/L
same,Na,[8],141.8 meq/L
same,PL,[8],141 mg/dL
same,RALB,[8],3.6 g/dL
same,TBIL,[8],0.1 mg/dL
same,TC,[8],69.2 mg/dL
same,TG,[8],133 mg/dL
same,TP,[8],6.2 g/dL
